Measurements as given in US10059689B2, “Substituted heteroaryl compounds and methods of use” (Sunshine Lake Pharma Co., Ltd., priority 2014, dated 2018).

Assays:
JAK2 (h) = biological target: T1, JAK2 (h) (Homo sapiens, UniProt O60674); experiment: JAK2 (h) kinase assay; format: biochemical
T1 construct: purchased Millipore UK Ltd (contract assay service)
Method: (§1) The above assay procedure can be used to determine the IC50 for inhibition and/or the inhibition constant, Ki. The IC50 is defined as the concentration of compound required to reduce the enzyme activity by 50% under the condition of the assay. The IC50 value is estimated by preparing a 10 point curve using a ½ log dilution series (for example, a typical curve may be prepared using the following compound concentrations: 3 μM, 1 μM, 0.3 μM, 0.1 μM, 0.03 μM, 0.01 μM, 0.003 μM, 0.001 μM, 0.0003 μM and 0 μM).
JAK2 (h) is incubated with 8 mM MOPS pH 7.0, 0.2 mM EDTA, 100 μM […], 10 mM MgAcetate and [γ-^33P-ATP] (specific activity approx. 500 cpm/pmol, concentration as required). The reaction is initiated by the addition of the MgATP mix. After incubation for 40 minutes at room temperature, the reaction is stopped by the addition of 3% phosphoric acid solution. 10 μL of the reaction is then spotted onto a P30 filtermat and washed three times for 5 minutes in 75 mM phosphoric acid and once in methanol prior to drying and scintillation counting.
(§2) The kinase assays described herein were performed at Millipore UK Ltd, Dundee Technology Park, Dundee DD2 1SW, UK.

JAK3 (h) = biological target: T2, JAK3 (h) (Homo sapiens, UniProt P52333); experiment: JAK3 (h) kinase assay; format: biochemical
T2 construct: purchased Millipore UK Ltd (contract assay service)
T2 sequence (P52333 1-1124): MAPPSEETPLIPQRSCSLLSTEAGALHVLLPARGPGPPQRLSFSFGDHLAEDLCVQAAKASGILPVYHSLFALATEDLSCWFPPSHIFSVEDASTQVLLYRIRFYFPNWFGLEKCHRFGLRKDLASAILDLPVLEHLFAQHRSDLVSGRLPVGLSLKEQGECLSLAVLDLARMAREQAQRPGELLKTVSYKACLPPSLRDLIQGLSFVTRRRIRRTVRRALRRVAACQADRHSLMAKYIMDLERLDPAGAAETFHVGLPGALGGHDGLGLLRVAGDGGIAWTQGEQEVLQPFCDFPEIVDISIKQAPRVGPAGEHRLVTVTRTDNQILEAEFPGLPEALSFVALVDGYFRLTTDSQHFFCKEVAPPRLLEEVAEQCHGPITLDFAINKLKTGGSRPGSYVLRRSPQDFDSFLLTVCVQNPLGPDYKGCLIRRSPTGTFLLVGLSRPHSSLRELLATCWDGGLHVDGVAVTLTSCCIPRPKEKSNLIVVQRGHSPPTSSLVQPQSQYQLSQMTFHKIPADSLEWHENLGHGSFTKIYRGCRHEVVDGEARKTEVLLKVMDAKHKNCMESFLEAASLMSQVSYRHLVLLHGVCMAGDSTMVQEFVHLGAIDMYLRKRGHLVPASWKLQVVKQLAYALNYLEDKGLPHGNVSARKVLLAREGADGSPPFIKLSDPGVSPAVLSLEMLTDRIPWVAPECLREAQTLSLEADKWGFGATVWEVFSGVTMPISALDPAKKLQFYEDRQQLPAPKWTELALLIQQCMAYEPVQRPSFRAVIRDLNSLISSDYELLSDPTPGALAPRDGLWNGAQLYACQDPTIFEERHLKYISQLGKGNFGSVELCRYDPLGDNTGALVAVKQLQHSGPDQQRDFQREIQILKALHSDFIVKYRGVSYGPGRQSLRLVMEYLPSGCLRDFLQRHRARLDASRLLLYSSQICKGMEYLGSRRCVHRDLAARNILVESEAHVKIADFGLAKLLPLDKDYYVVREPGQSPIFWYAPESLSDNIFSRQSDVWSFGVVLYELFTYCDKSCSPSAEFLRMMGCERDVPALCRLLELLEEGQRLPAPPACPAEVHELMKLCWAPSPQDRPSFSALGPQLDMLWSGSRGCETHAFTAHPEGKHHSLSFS
Method: Kinase assays can be performed by measurement of incorporation of γ-33P ATP into immobilized myelin basic protein (MBP). High binding white 384 well plates (Greiner) are coated with MBP (Sigma #M-1891) by incubation of 60 μL/well of 20 μg/mL MBP in Tris-buffered saline (TBS; 50 mM Tris pH 8.0, 138 mM NaCl, 2.7 mM KCl) for 24 h at 4° C. Plates are washed 3× with 100 μL TBS. Kinase reactions are carried out in a total volume of 34 μL in kinase buffer (according to the need to make, for example, 5 mM Hepes pH 7.6, 15 mM NaCl, 0.01% bovine gamma globulin (Sigma #I-5506), 10 mM MgCl2, 1 mM DTT, 0.02% TritonX-100). Compound dilutions are performed in DMSO and added to assay wells to a final DMSO concentration of 1%. Each data point is measured in duplicate, and at least two duplicate assays are performed for each individual compound determination. Enzyme is added to final concentrations of 10 nM or 20 nM, for example. A mixture of unlabeled ATP and γ-33P ATP is added to start the reaction (2×10^6 cpm of γ-33P ATP per well (3000 Ci/mmole) and 10 μM unlabeled ATP, typically. The reactions are carried out for 1 h at room temperature with shaking Plates are washed 7× with TBS, followed by the addition of 50 μL/well scintillation fluid (Wallac). Plates are read using a Wallac Trilux counter. This is only one format of such assays; various other formats are possible, as known to one skilled in the art.
as §1
JAK3 (h) is incubated with 8 mM MOPS pH 7.0, 0.2 mM EDTA, 500 μM GGEEEEYFELVKKKK, 10 mM MgAcetate and [γ-^33P-ATP] (specific activity approx. 500 cpm/pmol, concentration as required). The reaction is initiated by the addition of the MgATP mix. After incubation for 40 minutes at room temperature, the reaction is stopped by the addition of 3% phosphoric acid solution. 10 μL of the reaction is then spotted onto a P30 filtermat and washed three times for 5 minutes in 75 mM phosphoric acid and once in methanol prior to drying and scintillation counting.
as §2

T1 sequence (O60674 whole entry): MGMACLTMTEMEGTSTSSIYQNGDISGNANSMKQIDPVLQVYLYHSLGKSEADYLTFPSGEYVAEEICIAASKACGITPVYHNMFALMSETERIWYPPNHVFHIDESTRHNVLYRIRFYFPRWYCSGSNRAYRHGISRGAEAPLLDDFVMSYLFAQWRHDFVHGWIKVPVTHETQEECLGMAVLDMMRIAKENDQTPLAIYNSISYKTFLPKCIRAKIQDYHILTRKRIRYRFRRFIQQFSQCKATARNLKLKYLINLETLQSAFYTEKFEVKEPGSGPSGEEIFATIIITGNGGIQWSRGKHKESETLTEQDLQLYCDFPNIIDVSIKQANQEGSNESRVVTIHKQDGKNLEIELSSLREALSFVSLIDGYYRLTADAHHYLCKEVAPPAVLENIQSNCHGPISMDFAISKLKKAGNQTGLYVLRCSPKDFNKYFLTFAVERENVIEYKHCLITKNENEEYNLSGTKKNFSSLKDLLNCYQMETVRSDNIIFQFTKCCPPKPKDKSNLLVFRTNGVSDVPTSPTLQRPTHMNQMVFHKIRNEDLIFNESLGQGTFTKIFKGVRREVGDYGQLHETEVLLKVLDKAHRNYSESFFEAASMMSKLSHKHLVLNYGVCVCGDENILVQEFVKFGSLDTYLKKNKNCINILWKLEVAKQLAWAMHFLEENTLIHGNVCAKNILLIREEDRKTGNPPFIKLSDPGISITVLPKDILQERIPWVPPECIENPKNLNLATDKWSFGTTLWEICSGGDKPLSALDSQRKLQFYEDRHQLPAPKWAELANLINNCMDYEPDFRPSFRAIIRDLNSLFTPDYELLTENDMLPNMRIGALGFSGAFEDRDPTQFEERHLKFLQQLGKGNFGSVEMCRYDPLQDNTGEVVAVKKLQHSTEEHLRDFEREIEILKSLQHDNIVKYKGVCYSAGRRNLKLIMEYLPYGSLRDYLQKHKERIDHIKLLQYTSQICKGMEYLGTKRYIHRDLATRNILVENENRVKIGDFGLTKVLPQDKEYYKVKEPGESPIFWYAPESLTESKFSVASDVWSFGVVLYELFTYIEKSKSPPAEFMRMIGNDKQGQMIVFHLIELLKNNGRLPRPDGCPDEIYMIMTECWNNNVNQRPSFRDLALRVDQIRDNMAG

Row | Compound | IC50 (JAK2 (h)) [nM] | IC50 (JAK3 (h)) [nM]
1 | CN(c1nc(Nc2cnn(C)c2)ncc1Cl)C1CCN(c2ccc(C#N)cn2)CC1 [Ex. 5, 6-(4-((5-chloro-2-((1-methyl-1H-pyrazol-4-yl)amino)pyrimidin-4-yl) (methyl)amino)piperidin-1-yl)nicotinonitrile] | 17 | 13
2 | Cc1cc(Nc2ncc(Cl)c(NC3CCN(c4ccc(C#N)nn4)CC3)n2)nn1C [Ex. 13, 6-(4-((5-chloro-2-((1,5-dimethyl-1H-pyrazol-3-yl)amino)pyrimidin-4-yl)amino)piperidin-1-yl)pyridazine-3-carbonitrile] | 1 | 73
3 | Cc1nn(C)cc1Nc1ncc(Cl)c(NC2CCN(c3ccc(C#N)nn3)CC2)n1 [Ex. 11, 6-(4-((5-chloro-2-((1,3-dimethyl-1H-pyrazol-4-yl)amino)pyrimidin-4-yl)amino)piperidin-1-yl)pyridazine-3-carbonitrile] | 2 | 263

Second part, the compound after the results:

Row | IC50 (JAK2 (h)) [nM] | IC50 (JAK3 (h)) [nM] | Compound
4 | < 0.3 | 20 | Cc1c2ccc(Nc3ncc(Cl)c(NC4CCN(c5ccc(C#N)nn5)CC4)n3)cc2nn1C [Ex. 12, 6-(4-((5-chloro-2-((2,3-dimethyl-2H-indazol-6-yl)amino)pyrimidin-4-yl)amino)piperidin-1-yl)pyridazine-3-carbonitrile]
5 | 1 | 82 | Cc1nn(C)cc1Nc1ncc(Cl)c(NC2CCN(c3ccc(C#N)cn3)CC2)n1 [Ex. 10, 6-(4-((5-chloro-2-((1,3-dimethyl-1H-pyrazol-4-yl)amino)pyrimidin-4-yl)amino)piperidin-1-yl)nicotinonitrile]
6 | 2 | 21 | Cc1c2ccc(Nc3ncc(Cl)c(NC4CCN(c5ccc(C#N)cn5)CC4)n3)cc2nn1C [Ex. 4]
7 | 0.5 | – | Cn1cc(Nc2ncc(Cl)c(NC3CCN(c4ccc(C#N)cn4)CC3)n2)cn1 [Ex. 1, 6-(4-((5-chloro-2-((1-methyl-1H-pyrazol-4-yl)amino)pyrimidin-4-yl)amino)piperidin-1-yl)nicotinonitrile]
